Experimental data from ChEMBL document CHEMBL6092194, “Development of membrane-targeting chalcone derivatives as antibacterial agents against multidrug-resistant bacteria” (Eur J Med Chem, 2024).
Values after ≈ are worked out from the molar mass of the structure shown. Active and inactive are the calls of the source. No cut-off for these calls is given here.

Columns and labels:
Staphylococcus aureus [1] = assay: Drug resistance, ratio of MIC for Staphylococcus aureus ATCC43300 measured after 17 passages to MIC for Staphylococcus aureus ATCC43300 measured after first exposure; format: functional
Bacillus subtilis = assay: Antibacterial activity against penicillin-susceptible Bacillus subtilis ATCC9372 by broth microdilution assay; format: functional
Enterococcus faecalis = assay: Antibacterial activity against vancomycin susceptible Enterococcus faecalis ATCC29212 by broth microdilution assay; format: functional
Klebsiella pneumoniae = assay: Antibacterial activity against Klebsiella pneumoniae ATCC10031 by broth microdilution assay; format: functional
Acinetobacter baumannii = assay: Antibacterial activity against Acinetobacter baumannii ATCC19606 by broth microdilution assay; format: functional
Escherichia coli = assay: Antibacterial activity against penicillin-susceptible Escherichia coli ATCC25922 by broth microdilution method; format: functional
Pseudomonas aeruginosa = assay: Antibacterial activity against penicillin-susceptible Pseudomonas aeruginosa ATCC27853 by broth microdilution method; format: functional
Staphylococcus aureus [2] = assay: Antibacterial activity against Staphylococcus aureus ATCC43300 infected in sepsis mouse model assessed as reduction in liver damage at 5 mg/kg pre-infected with bacteria for 1 hrs followed by compound administration at 12 hrs interval for 2 days by H and E staining based analysis; format: functional, organism-based; details: time 2.0 day
Staphylococcus aureus [3] = assay: Antibacterial activity against Staphylococcus aureus ATCC43300 infected in sepsis mouse model assessed as reduction in spleen damage at 5 mg/kg pre-infected with bacteria for 1 hrs followed by compound administration at 12 hrs interval for 2 days by H and E staining based analysis; format: functional, organism-based; details: time 2.0 day
Staphylococcus aureus [4] = assay: Antibacterial activity against Staphylococcus aureus ATCC43300 infected in sepsis mouse model assessed as reduction in kidney damage at 5 mg/kg pre-infected with bacteria for 1 hrs followed by compound administration at 12 hrs interval for 2 days by H and E staining based analysis; format: functional, organism-based; details: time 2.0 day
Staphylococcus aureus [5] = assay: Antibacterial activity against Staphylococcus aureus ATCC43300 infected in sepsis mouse model assessed as reduction in liver inflammation at 5 mg/kg pre-infected with bacteria for 1 hrs followed by compound administration at 12 hrs interval for 2 days by H and E staining based analysis; format: functional, organism-based; details: time 2.0 day
Staphylococcus aureus [6] = assay: Antibacterial activity against Staphylococcus aureus ATCC43300 infected in sepsis mouse model assessed as reduction in spleen inflammation at 5 mg/kg pre-infected with bacteria for 1 hrs followed by compound administration at 12 hrs interval for 2 days by H and E staining based analysis; format: functional, organism-based; details: time 2.0 day
Staphylococcus aureus [7] = assay: Antibacterial activity against Staphylococcus aureus ATCC43300 infected in sepsis mouse model assessed as reduction in kidney inflammation at 5 mg/kg pre-infected with bacteria for 1 hrs followed by compound administration at 12 hrs interval for 2 days by H and E staining based analysis; format: functional, organism-based; details: time 2.0 day
Staphylococcus aureus [8] = assay: Antibacterial activity against erythromycin susceptible Staphylococcus aureus ATCC25923 by broth microdilution assay; format: functional
Staphylococcus aureus [9] = assay: Antibacterial activity against penicillin-resistant Staphylococcus aureus ATCC31007 by broth microdilution assay; format: functional
Staphylococcus aureus [10] = assay: Antibacterial activity against penicillin-resistant Staphylococcus aureus ATCC43300 by broth microdilution assay; format: functional
[11] = tested on: Staphylococcus epidermidis; assay: Antibacterial activity against erythromycin-susceptible Staphylococcus epidermidis ATCC12228 by broth microdilution assay; format: functional
[12] = Hemolytic activity in red blood cells (unknown origin); format: toxicity, cell-based, Erythrocyte
[13] = Selectivity index, ratio of HC50 for hemolytic activity in red blood cells (unknown origin) to MIC for antibacterial activity against penicillin-resistant Staphylococcus aureus ATCC43300; format: toxicity, cell-based, RBC; details: read-out: Selectivity Index
[14] = Selectivity index, ratio of HC50 for hemolytic activity in red blood cells (unknown origin) to MIC for antibacterial activity against penicillin-susceptible Escherichia coli ATCC25922; format: toxicity, cell-based, RBC; details: read-out: Selectivity Index

SMILES | Ratio (Staphylococcus aureus [1]) | MIC (Bacillus subtilis) [µg/mL] | MIC (Enterococcus faecalis) [µg/mL] | MIC (Klebsiella pneumoniae) [µg/mL] | MIC (Acinetobacter baumannii) [µg/mL] | MIC (Escherichia coli) [µg/mL] | MIC (Pseudomonas aeruginosa) [µg/mL] | Activity (Staphylococcus aureus [2]) | Activity (Staphylococcus aureus [3]) | Activity (Staphylococcus aureus [4]) | Activity (Staphylococcus aureus [5]) | Activity (Staphylococcus aureus [6]) | Activity (Staphylococcus aureus [7]) | MIC (Staphylococcus aureus [8]) [µg/mL] | MIC (Staphylococcus aureus [9]) [µg/mL] | MIC (Staphylococcus aureus [10]) [µg/mL] | MIC [11] [µg/mL] | HC50 [12] [µg/mL] | selectivity ratio [13] | selectivity ratio [14]
CCn1cc(C(=O)O)c(=O)c2cc(F)c(N3CCNCC3)cc21 [NORFLOXACIN] | 256 | – | – | – | – | – | – | – | – | – | – | – | – | – | – | – | – | – | – | –
CN[C@H](CC(C)C)C(=O)N[C@H]1C(=O)N[C@@H](CC(N)=O)C(=O)N[C@H]2C(=O)N[C@H]3C(=O)N[C@H](C(=O)N[C@H](C(=O)O)c4cc(O)cc(O)c4-c4cc3ccc4O)[C@H](O)c3ccc(c(Cl)c3)Oc3cc2cc(c3O[C@@H]2O[C@H](CO)[C@@H](O)[C@H](O)[C@H]2O[C@H]2C[C@](C)(N)[C@H](O)[C@H](C)O2)Oc2ccc(cc2Cl)[C@H]1O [VANCOMYCIN] | – | 0.5 (≈ 0.345 µM) | 2 (≈ 1.38 µM) | 128 (≈ 88.3 µM) | 16 (≈ 11 µM) | 128 (≈ 88.3 µM) | > 128 | Active | Active | Active | Active | Active | Active | – | – | – | – | – | – | –
CCCCCCCCCCCC[N+](C)(C)CCCOc1ccc(C(=O)/C=C/c2ccccc2)cc1.[Br-] | – | 4 | > 128 | 64 | 64 | 128 | > 128 | – | – | – | – | – | – | 4 | 16 | 4 | 8 | 220 | 55.1 | –
CCCCCCCCCCNC(=O)C[N+](C)(C)CCCOc1ccc(/C=C/C(=O)c2ccc(OCCC[N+](C)(C)CC(=O)NCCCCCCCCCC)cc2)cc1.[Br-].[Br-] | – | 32 | > 128 | > 128 | 128 | > 128 | > 128 | – | – | – | – | – | – | 32 | 16 | 64 | 64 | 66.1 | 1 | –
COc1ccc(CC(=O)Nc2cc[n+](CCCOc3ccc(C(=O)/C=C/c4ccccc4)cc3)cc2)cc1.[Br-] | – | 16 | 16 | 64 | 128 | 128 | > 128 | – | – | – | – | – | – | 8 | 16 | 8 | 128 | 724 | 90.5 | –
CCCCCCCCCCOc1cc[n+](CCCOc2ccc(/C=C/C(=O)c3ccc(OCCC[n+]4ccc(OCCCCCCCCCC)cc4)cc3)cc2)cc1.[Br-].[Br-] | – | 128 | 128 | 16 | 32 | 128 | > 128 | – | – | – | – | – | – | 128 | 128 | 128 | 8 | 161 | 1.3 | –
CCCC[N+](C)(C)CCCOc1ccc(/C=C/C(=O)c2ccc(OCCC[N+](C)(C)CCCC)cc2)cc1.[Br-].[Br-] | – | 8 | 4 | 128 | > 128 | 128 | > 128 | – | – | – | – | – | – | 2 | 2 | 8 | 2 | 590 | 73.8 | –
CCCCCC[N+](C)(C)CCCCCCCOc1ccc(C(=O)/C=C/c2ccccc2)cc1.[Br-] | – | 2 | 4 | 16 | 16 | > 128 | > 128 | – | – | – | – | – | – | 2 | 4 | 4 | 2 | 61.6 | 15.4 | –
CCCCCCCC(=O)Nc1cc[n+](CCCOc2ccc(C(=O)/C=C/c3ccccc3)cc2)cc1.[Br-] | – | 2 | 4 | 16 | 128 | 32 | > 128 | – | – | – | – | – | – | 2 | 2 | 2 | 8 | 887 | 443 | –
CCCC[N+](C)(C)CCCOc1ccc(C(=O)/C=C/c2ccccc2)cc1.[Br-] | – | 64 | 64 | 128 | > 128 | 128 | > 128 | – | – | – | – | – | – | 16 | 64 | 32 | 16 | 96.3 | 3 | –
CCCC[N+](C)(C)CCCCCOc1ccc(C(=O)/C=C/c2ccccc2)cc1.[Br-] | – | 32 | 32 | 64 | 128 | > 128 | > 128 | – | – | – | – | – | – | 8 | 64 | 32 | 16 | 538 | 16.8 | –
CCCCCCCCCCCC[N+](C)(C)CCCOc1ccc(/C=C/C(=O)c2ccc(OCCC[N+](C)(C)CCCCCCCCCCCC)cc2)cc1.[Br-].[Br-] | – | > 128 | > 128 | > 128 | > 128 | > 128 | > 128 | – | – | – | – | – | – | 16 | 16 | > 128 | 64 | 21.2 | < 0.2 | –
CCCCCCCCCC[N+](C)(C)CCCOc1ccc(C(=O)/C=C/c2ccccc2)cc1.[Br-] | – | 8 | 64 | 128 | > 128 | > 128 | > 128 | – | – | – | – | – | – | 8 | 4 | 4 | 16 | 756 | 189 | –
CC(C)=CC(=O)Nc1cc[n+](CCCOc2ccc(C(=O)/C=C/c3ccccc3)cc2)cc1.[Br-] | – | > 128 | > 128 | > 128 | > 128 | > 128 | > 128 | – | – | – | – | – | – | > 128 | > 128 | > 128 | > 128 | > 1280 | > 10 | –
CCCCCCCCCCCCCC[N+](C)(C)CCCOc1ccc(/C=C/C(=O)c2ccc(OCCC[N+](C)(C)CCCCCCCCCCCCCC)cc2)cc1.[Br-].[Br-] | – | > 128 | > 128 | 128 | 128 | > 128 | > 128 | – | – | – | – | – | – | 64 | 64 | 128 | > 128 | 28.4 | 0.2 | –
CCCCCCCCOc1cc[n+](CCCOc2ccc(/C=C/C(=O)c3ccc(OCCC[n+]4ccc(OCCCCCCCC)cc4)cc3)cc2)cc1.[Br-].[Br-] | – | 64 | 64 | 64 | 128 | 128 | 128 | – | – | – | – | – | – | 64 | 64 | 32 | 32 | 180 | 5.6 | –
CCCCCC[N+](C)(C)CCCCCOc1ccc(C(=O)/C=C/c2ccccc2)cc1.[Br-] | – | 8 | 16 | 32 | 64 | > 128 | > 128 | – | – | – | – | – | – | 2 | 16 | 16 | 8 | 112 | 7 | –
CCCCNC(=O)C[N+](C)(C)CCCOc1ccc(/C=C/C(=O)c2ccc(OCCC[N+](C)(C)CC(=O)NCCCC)cc2)cc1.[Br-].[Br-] | – | 4 | 8 | 32 | > 128 | 16 | > 128 | – | – | – | – | – | – | 2 | 4 | 8 | 4 | > 1280 | > 160 | –
CCCCCC[N+](C)(C)CCCOc1ccc(/C=C/C(=O)c2ccc(OCCC[N+](C)(C)CCCCCC)cc2)cc1.[Br-].[Br-] | – | 0.5 | 1 | 4 | 16 | 4 | 32 | – | – | – | – | – | – | 1 | 1 | 1 | 0.5 | 1130 | 1130 | 283
